# System: Jurkat T cells
# Experiment: mRNA sequencing of activated Jurkat T cells
# Type: cell-based, human
# Conditions: Jurkat T cells, P + I
compound,measurement,value
"C=CC[C@@H]1/C=C(\C)C[C@H](C)C[C@H](OC)[C@H]2O[C@@](O)(C(=O)C(=O)N3CCCC[C@H]3C(=O)O[C@H](/C(C)=C/[C@@H]3CC[C@@H](O)[C@H](OC)C3)[C@H](C)[C@@H](O)CC1=O)[C@H](C)C[C@@H]2OC [FK506, Tacrolimus, reference compound]",ABTB2 FPKM,2.549 FPKM
same,ACAP1 FPKM,35.261 FPKM
same,ACSF3 FPKM,22.755 FPKM
same,ADA FPKM,74.531 FPKM
same,ADAMTS17 FPKM,0.843 FPKM
same,ADCYAP1 FPKM,3.646 FPKM
same,ADORA2A FPKM,0.998 FPKM
same,AFF2 FPKM,4.374 FPKM
same,AGK FPKM,14.029 FPKM
same,ALDH1A2 FPKM,7.041 FPKM
same,ALOX5AP FPKM,92.971 FPKM
same,ANKEF1 FPKM,3.081 FPKM
same,ANO8 FPKM,3.26 FPKM
same,ANTXR2 FPKM,53.159 FPKM
same,APH1B FPKM,5.12 FPKM
same,APOBEC3B-AS1 FPKM,13.251 FPKM
same,APOBEC3F FPKM,5.861 FPKM
same,APOBEC3G FPKM,8.803 FPKM
same,APOL1 FPKM,4.036 FPKM
same,ARHGAP4 FPKM,15.97 FPKM
same,ARHGAP25 FPKM,3.447 FPKM
same,ARHGAP31 FPKM,10.889 FPKM
same,ARHGEF3 FPKM,8.637 FPKM
same,ARPP21 FPKM,1.29 FPKM
same,ASB13 FPKM,2.277 FPKM
same,ASNS FPKM,20.436 FPKM
same,ATHL1 FPKM,4.597 FPKM
same,ATP2A3 FPKM,47.81 FPKM
same,ATP6V0A4 FPKM,21.385 FPKM
same,ATP6V1B2 FPKM,50.672 FPKM
same,ATPAF1 FPKM,11.764 FPKM
same,AVPR2 FPKM,1.21 FPKM
same,B2M FPKM,1155.981 FPKM
same,BAHCC1 FPKM,1 FPKM
same,BCL2A1 FPKM,21.118 FPKM
same,BCL2L1 FPKM,39.402 FPKM
same,BCL3 FPKM,14.57 FPKM
same,BCL6 FPKM,15.181 FPKM
same,BCL7A FPKM,12.185 FPKM
same,BCL11B FPKM,3.688 FPKM
same,BEND6 FPKM,1.416 FPKM
same,BIN1 FPKM,2.374 FPKM
same,BIRC3 FPKM,30.767 FPKM
same,C10orf55 FPKM,7.632 FPKM
same,C11orf74 FPKM,0.365 FPKM
same,C21orf58 FPKM,5.847 FPKM
same,CABP1 FPKM,1.201 FPKM
same,CAMK2D FPKM,5.855 FPKM
same,CARHSP1 FPKM,20.082 FPKM
same,CBFA2T3 FPKM,12.236 FPKM
same,CBLB FPKM,8.881 FPKM
same,CBS FPKM,3.935 FPKM
same,CBX2 FPKM,2.786 FPKM
same,CCDC15 FPKM,3.535 FPKM
same,CCL3 FPKM,0 FPKM
same,CCL3L3 FPKM,0 FPKM
same,CCL20 FPKM,0 FPKM
same,CCND3 FPKM,30.402 FPKM
same,CCNE2 FPKM,6.298 FPKM
same,CD1B FPKM,4.115 FPKM
same,CD1E FPKM,4.975 FPKM
same,CD70 FPKM,3.005 FPKM
same,CD82 FPKM,171.933 FPKM
same,CD97 FPKM,19.394 FPKM
same,CD200 FPKM,0 FPKM
same,CD274 FPKM,7.13 FPKM
same,CDKN1A FPKM,39.264 FPKM
same,CDKN2D FPKM,17.642 FPKM
same,CECR1 FPKM,5.304 FPKM
same,CENPM FPKM,13.201 FPKM
same,CEP70 FPKM,14.887 FPKM
same,CERKL FPKM,13.458 FPKM
same,CFLAR FPKM,3.438 FPKM
same,CHEK2 FPKM,8.907 FPKM
same,CHPF2 FPKM,36.42 FPKM
same,CHPF FPKM,9.759 FPKM
same,CHRNA3 FPKM,4.293 FPKM
same,CHST12 FPKM,13.527 FPKM
same,CNN2 FPKM,30.77 FPKM
same,COL27A1 FPKM,4.463 FPKM
same,CPD FPKM,23.208 FPKM
same,CREB3L2 FPKM,5.62 FPKM
same,CREB5 FPKM,0.577 FPKM
same,CSF1 FPKM,1.706 FPKM
same,CSF2 FPKM,0 FPKM
same,CXCL8 FPKM,0.937 FPKM
same,CXCL11 FPKM,0.695 FPKM
same,CXCR4 FPKM,38.979 FPKM
same,CYTH1 FPKM,33.17 FPKM
same,DBP FPKM,2.396 FPKM
same,DCBLD2 FPKM,13.786 FPKM
same,DENND5A FPKM,24.792 FPKM
same,DNAJB5 FPKM,19.238 FPKM
same,DSTYK FPKM,3.501 FPKM
same,DTL FPKM,5.862 FPKM
same,DTX1 FPKM,4.414 FPKM
same,DUSP6 FPKM,9.728 FPKM
same,DUSP10 FPKM,11.981 FPKM
same,E2F7 FPKM,4.531 FPKM
same,ECE1 FPKM,20.046 FPKM
same,EFHD2 FPKM,180.233 FPKM
same,EGR1 FPKM,218.444 FPKM
same,EGR2 FPKM,11.435 FPKM
same,EHBP1L1 FPKM,7.073 FPKM
same,EMP1 FPKM,4.613 FPKM
same,ETS1 FPKM,50.032 FPKM
same,FADS2 FPKM,67.903 FPKM
same,FAM64A FPKM,7.456 FPKM
same,FAT1 FPKM,13.036 FPKM
same,FBLN2 FPKM,3.348 FPKM
same,FKBP5 FPKM,8.687 FPKM
same,FLI1 FPKM,13.241 FPKM
same,FOSL1 FPKM,10.499 FPKM
same,FOSL2 FPKM,2.204 FPKM
same,FXYD5 FPKM,41.346 FPKM
same,FYN FPKM,16.523 FPKM
same,GAD1 FPKM,2.246 FPKM
same,GFOD1 FPKM,4.187 FPKM
same,GFRA1 FPKM,0.991 FPKM
same,GKAP1 FPKM,2.692 FPKM
same,GLRB FPKM,1.62 FPKM
same,GLRX FPKM,25.315 FPKM
same,GNG4 FPKM,5.365 FPKM
same,GPC2 FPKM,5.785 FPKM
same,GPR17 FPKM,0.258 FPKM
same,GPR68 FPKM,8.916 FPKM
same,GSE1 FPKM,17.37 FPKM
same,GTDC1 FPKM,4.629 FPKM
same,GXYLT2 FPKM,5.443 FPKM
same,GZMB FPKM,513.528 FPKM
same,HCAR1 FPKM,7.167 FPKM
same,HIVEP3 FPKM,20.041 FPKM
same,HLA-A FPKM,181.069 FPKM
same,HLA-B FPKM,116.079 FPKM
same,HPGD FPKM,6.064 FPKM
same,IFIT3 FPKM,6.495 FPKM
same,IKZF2 FPKM,8.561 FPKM
same,IL2 FPKM,0.287 FPKM
same,IL4R FPKM,9.842 FPKM
same,IL10RA FPKM,2.828 FPKM
same,IL15 FPKM,2.654 FPKM
same,IL15RA FPKM,5.979 FPKM
same,IL21R FPKM,2.244 FPKM
same,IL21R-AS1 FPKM,1.927 FPKM
same,IL27RA FPKM,10.817 FPKM
same,IQCJ-SCHIP1 FPKM,1.657 FPKM
same,IQGAP2 FPKM,4.857 FPKM
same,IRF1 FPKM,141.607 FPKM
same,IRF2 FPKM,34.99 FPKM
same,IRF4 FPKM,0.423 FPKM
same,IRF7 FPKM,21.167 FPKM
same,ITGA4 FPKM,39.099 FPKM
same,ITGAL FPKM,10.212 FPKM
same,ITK FPKM,58.558 FPKM
same,JAK2 FPKM,5.248 FPKM
same,KCNK1 FPKM,10.967 FPKM
same,KIAA0101 FPKM,21.727 FPKM
same,KIAA0247 FPKM,8.032 FPKM
same,KIR3DX1 FPKM,3.048 FPKM
same,KLF10 FPKM,25.627 FPKM
same,KLF12 FPKM,6.506 FPKM
same,KREMEN1 FPKM,3.122 FPKM
same,LAIR1 FPKM,8.298 FPKM
same,LDLRAD4 FPKM,6.21 FPKM
same,LEF1-AS1 FPKM,3.747 FPKM
same,LEF1 FPKM,74.102 FPKM
same,LGMN FPKM,1.42 FPKM
same,LIF FPKM,0.143 FPKM
same,LIMS2 FPKM,4.122 FPKM
same,LINC00659 FPKM,10.239 FPKM
same,LINC01260 FPKM,7.672 FPKM
same,LMNA FPKM,4.62 FPKM
same,LMO1 FPKM,1.094 FPKM
same,LOC653712 FPKM,4.163 FPKM
same,LOC100506688 FPKM,1.625 FPKM
same,LOC101926963 FPKM,4.541 FPKM
same,LOC101927497 FPKM,9.413 FPKM
same,LPAR6 FPKM,8.449 FPKM
same,LRRC8C FPKM,10.058 FPKM
same,LRRC20 FPKM,3.843 FPKM
same,LTBP4 FPKM,8.427 FPKM
same,LUCATI FPKM,12.516 FPKM
same,MAFF FPKM,16.977 FPKM
same,MAGEA4 FPKM,3.908 FPKM
same,MAL FPKM,2.664 FPKM
same,MAMLD1 FPKM,5.995 FPKM
same,MAP3K7CL FPKM,2.247 FPKM
same,MAST4 FPKM,3.498 FPKM
same,MAZ FPKM,112.102 FPKM
same,MCM2 FPKM,22.07 FPKM
same,MCTP2 FPKM,5.326 FPKM
same,METRN FPKM,1.779 FPKM
same,MFAP4 FPKM,0.663 FPKM
same,MGAT4A FPKM,8.906 FPKM
same,MICAL2 FPKM,1.763 FPKM
same,MIR22HG FPKM,9.248 FPKM
same,MIR3652 FPKM,547.182 FPKM
same,MIR6775 FPKM,19.643 FPKM
same,MIR6821 FPKM,13.626 FPKM
